Laboratory results: US20080014186A1, “Hla-A24 or Hla-A2 Binding Peptides of Parathyroid Hormone-Related Protein” (GREEN PEPTIDE CO., LTD., priority 2004, published 2008)

Experiments:
[1] = system: IgG in plasma of HLA-A2^+ healthy donors and prostate cancer patients; assay: Peptide-specific IgG in plasma by ELISA (HLA-A2-binding PTHrP peptides); design: species or system human; details: for IgG reactive to the peptide in plasma (difference of OD): 1:100-diluted plasma
Method: Peptide-specific IgG levels in the plasma were measured by ELISA, as previously reported. In brief, peptide (20 μg/well)-immobilized plates were blocked with Block Ace (Yukijirushi, Tokyo, Japan) and washed with 0.05% Tween20-PBS, after which 100 μl/well of plasma sample diluted with 0.05% Tween20-Block Ace was added to the plate. After 2 hours incubation at 37° C., the plates were washed and further incubated for 2 hours with a 1:1000-diluted rabbit anti-human IgG (γ-chain-specific) (DAKO, Glostrup, Denmark). The plates were washed, and then 100 μl of 1:100-diluted goat anti-rabbit IgG-conjugated horseradish peroxidase (EnVision, DAKO) was added to each well, and the plates were then incubated at room temperature for 40 min. After the plates were washed once, 100 μl/well of tetramethyl benzidine substrate solution (KPL, Guildford, UK) was added, and the reaction was stopped by the addition of 1 M phosphoric acid. The values are shown as optical density (OD) units/ml, and responses to the HIV peptide were subtracted. IgG reactive to a corresponding PTHrP peptide was judged to be positive when the difference of the OD in 1:100-diluted plasma exceeded 0.05. The results that IgG reactive to either the PTHrP102-111 or the […] peptide was detected in 8 of 10 healthy donors and in 7 of 10 prostate cancers are shown in Table 2 hereinafter.
In a similar way to Example 3, it was examined whether IgGs reactive to peptides of PTHrP 42-51 and PTHrP 59-67 could be detected in the plasma of 10 healthy donors and 10 cancer patients. The cut-off value at 1:100-diluted plasma was ODO.054.

[2] = system: PBMCs of HLA-A2^+ healthy donors and prostate cancer patients; assay: Assay for peptide-specific CTLs in PBMCs (IFN-γ ELISA, peptide-pulsed T2 cells); type: cell-based, human; details: for INF-γ production: T2 cells
[3] = HLA-A2^+ prostate cancer patients

## TSTTSLELD [PTHrP 165-173, previously reported PTHrP peptide generating CTLs from HLA-A*0201 healthy donors [17], reference compound]
[1]; HLA-A2^+ healthy donor #1
  IgG reactive to the peptide in plasma (difference of OD): — (IgG reactive to a corresponding peptide was judged to be positive when a difference of OD in a 1:100-diluted plasma was more than 0.054.)
[1]; HLA-A2^+ healthy donor #2
  IgG reactive to the peptide in plasma (difference of OD): — (IgG reactive to a corresponding peptide was judged to be positive when a difference of OD in a 1:100-diluted plasma was more than 0.054.)
[1]; HLA-A2^+ healthy donor #3
  IgG reactive to the peptide in plasma (difference of OD): — (IgG reactive to a corresponding peptide was judged to be positive when a difference of OD in a 1:100-diluted plasma was more than 0.054.)
[1]; HLA-A2^+ healthy donor #4
  IgG reactive to the peptide in plasma (difference of OD): — (IgG reactive to a corresponding peptide was judged to be positive when a difference of OD in a 1:100-diluted plasma was more than 0.054.)
[1]; HLA-A2^+ healthy donor #5
  IgG reactive to the peptide in plasma (difference of OD): — (IgG reactive to a corresponding peptide was judged to be positive when a difference of OD in a 1:100-diluted plasma was more than 0.054.)
[1]; HLA-A2^+ healthy donor #6
  IgG reactive to the peptide in plasma (difference of OD): 0.0865 OD
[1]; HLA-A2^+ healthy donor #7
  IgG reactive to the peptide in plasma (difference of OD): 0.089 OD
[1]; HLA-A2^+ healthy donor #8
  IgG reactive to the peptide in plasma (difference of OD): 0.193 OD
[1]; HLA-A2^+ healthy donor #9
  IgG reactive to the peptide in plasma (difference of OD): 0.0925 OD
[1]; HLA-A2^+ healthy donor #10
  IgG reactive to the peptide in plasma (difference of OD): 0.099 OD
[1]; HLA-A2^+ healthy donors
  Total (IgG-positive donors / donors tested): 5/10
[1]; HLA-A2^+ prostate cancer patient #1
  IgG reactive to the peptide in plasma (difference of OD): — (IgG reactive to a corresponding peptide was judged to be positive when a difference of OD in a 1:100-diluted plasma was more than 0.054.)
[1]; HLA-A2^+ prostate cancer patient #2
  IgG reactive to the peptide in plasma (difference of OD): — (IgG reactive to a corresponding peptide was judged to be positive when a difference of OD in a 1:100-diluted plasma was more than 0.054.)
[1]; HLA-A2^+ prostate cancer patient #3
  IgG reactive to the peptide in plasma (difference of OD): 0.078 OD
[1]; HLA-A2^+ prostate cancer patient #4
  IgG reactive to the peptide in plasma (difference of OD): — (IgG reactive to a corresponding peptide was judged to be positive when a difference of OD in a 1:100-diluted plasma was more than 0.054.)
[1]; HLA-A2^+ prostate cancer patient #5
  IgG reactive to the peptide in plasma (difference of OD): — (IgG reactive to a corresponding peptide was judged to be positive when a difference of OD in a 1:100-diluted plasma was more than 0.054.)
[1]; HLA-A2^+ prostate cancer patient #6
  IgG reactive to the peptide in plasma (difference of OD): — (IgG reactive to a corresponding peptide was judged to be positive when a difference of OD in a 1:100-diluted plasma was more than 0.054.)
[1]; HLA-A2^+ prostate cancer patient #7
  IgG reactive to the peptide in plasma (difference of OD): — (IgG reactive to a corresponding peptide was judged to be positive when a difference of OD in a 1:100-diluted plasma was more than 0.054.)
[1]; HLA-A2^+ prostate cancer patient #8
  IgG reactive to the peptide in plasma (difference of OD): — (IgG reactive to a corresponding peptide was judged to be positive when a difference of OD in a 1:100-diluted plasma was more than 0.054.)
[1]; HLA-A2^+ prostate cancer patient #9
  IgG reactive to the peptide in plasma (difference of OD): — (IgG reactive to a corresponding peptide was judged to be positive when a difference of OD in a 1:100-diluted plasma was more than 0.054.)
[1]; HLA-A2^+ prostate cancer patient #10
  IgG reactive to the peptide in plasma (difference of OD): 0.1515 OD
[1]; [3]
  Total (IgG-positive patients / patients tested): 2/10
[2]; HLA-A2^+ healthy donor #1 (A0201)
  INF-γ production: 0 pg/mL
[2]; HLA-A2^+ healthy donor #2 (A0201)
  INF-γ production: 222 pg/mL
[2]; HLA-A2^+ healthy donor #3 (A0201)
  INF-γ production: 0 pg/mL
[2]; HLA-A2^+ healthy donor #4 (A0201)
  INF-γ production: 294 pg/mL
[2]; HLA-A2^+ healthy donor #5 (A0206)
  INF-γ production: 0 pg/mL
[2]; HLA-A2^+ healthy donor #6 (A0206)
  INF-γ production: 0 pg/mL
[2]; HLA-A2^+ healthy donor #7 (A0206)
  INF-γ production: 27 pg/mL
[2]; HLA-A2^+ healthy donor #8 (A0206)
  INF-γ production: 325 pg/mL
[2]; HLA-A2^+ healthy donor #9 (A0206)
  INF-γ production: 395 pg/mL
[2]; HLA-A2^+ healthy donor #10 (A0207)
  INF-γ production: 46 pg/mL
[2]; HLA-A2^+ healthy donors
  induced peptide-specific CTLs, number of donors: 4 of 10
[2]; HLA-A2^+ healthy donors, p < 0.05
  Total (donors with significant peptide-specific IFN-γ production / donors tested): 4/10
[2]; HLA-A2^+ prostate cancer patient #1 (A0206)
  INF-γ production: 202 pg/mL
[2]; HLA-A2^+ prostate cancer patient #2 (A0210)
  INF-γ production: 26 pg/mL
[2]; HLA-A2^+ prostate cancer patient #3 (A0210)
  INF-γ production: 60 pg/mL
[2]; HLA-A2^+ prostate cancer patient #4 (A0206)
  INF-γ production: 151 pg/mL
[2]; HLA-A2^+ prostate cancer patient #5 (A0206)
  INF-γ production: 103 pg/mL
[2]; HLA-A2^+ prostate cancer patient #6 (A0207)
  INF-γ production: 0 pg/mL
[2]; HLA-A2^+ prostate cancer patient #7 (A0206)
  INF-γ production: 0 pg/mL
[2]; HLA-A2^+ prostate cancer patient #8 (A0206)
  INF-γ production: 80 pg/mL
[2]; HLA-A2^+ prostate cancer patient #9 (A0201)
  INF-γ production: 0 pg/mL
[2]; HLA-A2^+ prostate cancer patient #10 (A0201)
  INF-γ production: 24 pg/mL
[2]; [3]
  induced peptide-specific CTLs (peptide-specific IFN-γ production), number of patients: 3 of 10
[2]; HLA-A2^+ prostate cancer patients, p < 0.05
  Total (patients with significant peptide-specific IFN-γ production / patients tested): 3/10
